Structures are written as SMILES.

T1 sequence (P37288 whole entry): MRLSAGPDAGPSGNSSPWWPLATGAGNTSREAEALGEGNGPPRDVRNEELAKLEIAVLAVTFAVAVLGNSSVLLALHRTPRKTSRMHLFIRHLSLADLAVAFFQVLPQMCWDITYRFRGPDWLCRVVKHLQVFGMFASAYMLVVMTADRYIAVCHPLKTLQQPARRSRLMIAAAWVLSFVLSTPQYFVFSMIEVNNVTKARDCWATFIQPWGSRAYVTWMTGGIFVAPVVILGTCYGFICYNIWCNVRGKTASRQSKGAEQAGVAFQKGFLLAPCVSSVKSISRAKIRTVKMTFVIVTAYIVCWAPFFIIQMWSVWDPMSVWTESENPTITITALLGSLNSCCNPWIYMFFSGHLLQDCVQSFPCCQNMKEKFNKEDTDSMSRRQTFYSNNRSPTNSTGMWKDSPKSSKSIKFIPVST

This assay concerns the target T1, human V1a receptor (Homo sapiens, UniProt P37288).
T1 construct: expressed in transfected cells; host or cells: HEK293 cells, transiently transfected; cell membranes
Put plainly: human V1a receptor binding studies (3H-Vasopressin, SPA beads). Conditions: membranes of HEK293 cells transiently transfected with human V1a receptor, Ki by Cheng-Prussoff from IC50, read-out: pKi hV1a (converted). How it is done: The human V1a receptor was cloned by RT-PCR from total human liver RNA. The coding sequence was subcloned in an expression vector after sequencing to confirm the identity of the amplified sequence. […] Cell membranes were prepared from HEK293 cells transiently transfected with the expression vector and grown in 20 liter fermenters with the following protocol.
50 g of cells are re-suspended in 30 ml freshly prepared ice cold Lysis buffer (50 mM HEPES, 1 mM EDTA, 10 mM MgCl2 adjusted to pH=7.4+complete cocktail of protease inhibitor (Roche Diagnostics)). Homogenized with Polytron for 1 min and sonicated on ice for 2×2 minutes at 80% intensity (Vibracell sonicator). The preparation is centrifuged 20 min at 500 g at 4° C., the pellet is discarded and the supernatant centrifuged 1 hour at 43′000 g at 4° C. (19′000 rpm). The pellet is re-suspended in 12.5 ml Lysis buffer+12.5 ml Sucrose 20% and homogenized using a Polytron for 1-2 min. The protein concentration is determined by the Bradford method and aliquots are stored at −80° C. until use. For binding studies 60 mg Yttrium silicate SPA beads (Amersham) are mixed with an aliquot of membrane in binding buffer (50 mM Tris, 120 mM NaCl, 5 mM KCl, 2 mM CaCl2, 10 mM MgCl2) for 15 minutes with mixing. 50 μl of bead/membrane mixture is then added to each well of a 96 well plate, followed by 50 μl of 4 nM 3H-Vasopressin (American Radiolabeled Chemicals). For total binding measurement 100 μl of binding buffer are added to the respective wells, for non-specific binding 100 μl of […] cold vasopressin and for compound testing 100 μl of a serial dilution of each compound in 2% DMSO. The plate is incubated 1 h at room temperature, centrifuged 1 min at 1000 g and counted on a Packard Top-Count. Non-specific binding counts are subtracted from each well and data is normalized to the maximum specific binding set at 100%. To calculate an IC 50 the curve is fitted using a non-linear regression model (XLfit) and the Ki is calculated using the Cheng-Prussoff equation.
Take `CC(c1ccccc1)C1(C)OC(N2CCC3(CC2)OCc2ccccc23)=NC1=O` (single isomer, unassigned; diastereomer b) [Example 111, (+)-5-Methyl-5-(1-phenylethyl)-2-(1′H,3H-spiro[2-benzofuran-1,4′-piperidin]-1′-yl)-1,3-oxazol-4(5H)-one diastereomer b]: the Ki is 251 nM.
Regarding `CC(=O)O[C@H]1CC2(C[C@H]1OC(C)=O)OC(N1CCC3(CC1)OCc1ccccc13)=NC2=O` (single isomer, unassigned; diastereomer b) [Example 121, 4-Oxo-2-(1′H,3H-spiro[2-benzofuran-1,4′-piperidin]-1′-yl)-1-oxa-3-azaspiro[4.4]non-2-ene-7,8-diyl diacetate diastereomer b], the Ki is 6.31 nM.
To `CCCCCC1CCC2(CC1)OC(N1CCC3(CC1)OC(=O)c1ccccc13)=NC2=O` (single isomer, unassigned; diastereomer b) [Example 127, 1′-[4-Oxo-8-pentyl-1-oxa-3-azaspiro[4.5]dec-2-en-2-yl]-3H-spiro[2-benzofuran-1,4′-piperidin]-3-one diastereomer b] belongs 251 nM; to `CCCCCC1CCC2(CC1)OC(N1CCC3(CC1)OCc1ccccc13)=NC2=O` (single isomer, unassigned; diastereomer b) [Example 129, 8-Pentyl-2-(1′H,3H-spiro[2-benzofuran-1,4′-piperidin]-1′-yl)-1-oxa-3-azaspiro[4.5]dec-2-en-4-one diastereomer b], 158 nM; to `O=C1N=C(N2CCC3(CC2)OCc2ccccc23)OC12C[C@@H]1OCCO[C@@H]1C2` (single isomer, unassigned; diastereomer b) [Example 145, 2′-(1′H,3H-Spiro[2-benzofuran-1,4′-piperidin]-1′-yl)-2,3,4a,5,7,7a-hexahydro-4′H-spiro[cyclopenta[b][1,4]dioxine-6,5′-[1,3]oxazol]-4′-one diastereomer b], 50.1 nM.
The figure for `CCOC(=O)C1[C@H]2CC3(C[C@@H]12)OC(N1CCC2(CC1)OCc1ccccc12)=NC3=O` (single isomer, unassigned; diastereomer b) [Example 149, Ethyl 4′-oxo-2′-(1′H,3H-spiro[2-benzofuran-1,4′-piperidin]-1′-yl)-4′H-spiro[bicyclo[3.1.0]hexane-3,5′-[1,3]oxazole]-6-carboxylate diastereomer b] is 200 nM; for `CCCCC1OC(N2CCC3(CC2)OC(=O)c2ccccc23)=NC1=O` (single isomer, unassigned; enantiomer a) [Example 5, 1′-[5-Butyl-4-oxo-4,5-dihydro-1,3-oxazol-2-yl]-3H-spiro[2-benzofuran-1,4′-piperidin]-3-one enantiomer A] it is 251 nM; for `O=C1N=C(N2CCC3(CC2)OCc2ccccc23)OC1CC1CCCC1` (single isomer, unassigned; enantiomer a) [Example 13, 5-(Cyclopentylmethyl)-2-(1′H,3H-spiro[2-benzofuran-1,4′-piperidin]-1′-yl)-1,3-oxazol-4(5H)-one enantiomer A] it is 0.794 nM.
On to `O=C1OC2(CCN(C3=NC(=O)C(CC4CCCC4)O3)CC2)c2ccccc21` (single isomer, unassigned; enantiomer a) [Example 15, 1′-[5-(Cyclopentylmethyl)-4-oxo-4,5-dihydro-1,3-oxazol-2-yl]-3H-spiro[2-benzofuran-1,4′-piperidin]-3-one enantiomer A], for which the Ki was 2.51 nM.
`O=C1OC2(CCN(C3=NC(=O)C(Cc4ccccc4)O3)CC2)c2ccccc21` (single isomer, unassigned; enantiomer a) [Example 20, 1′-[5-Benzyl-4-oxo-4,5-dihydro-1,3-oxazol-2-yl]-3H-spiro[2-benzofuran-1,4′-piperidin]-3-one enantiomer A]: the Ki was 251 nM.
As for `CC1(Cc2ccccc2)OC(N2CCC3(CC2)OC(=O)c2ccccc23)=NC1=O` (single isomer, unassigned; enantiomer a) [Example 72, 1′-[5-Benzyl-5-methyl-4-oxo-4,5-dihydro-1,3-oxazol-2-yl]-3H-spiro[2-benzofuran-1,4′-piperidin]-3-one enantiomer A], the Ki was 25.1 nM.
With `CC1(Cc2ccc(Cl)cc2)OC(N2CCC3(CC2)OC(=O)c2ccccc23)=NC1=O` (single isomer, unassigned; enantiomer a) [Example 80, 1′-[5-(4-Chlorobenzyl)-5-methyl-4-oxo-4,5-dihydro-1,3-oxazol-2-yl]-3H-spiro[2-benzofuran-1,4′-piperidin]-3-one enantiomer A], the Ki was 20 nM.
Take `CCCCC1OC(N2CCC3(CC2)OC(=O)c2ccccc23)=NC1=O` (single isomer, unassigned; enantiomer b) [Example 6, 1′-[5-Butyl-4-oxo-4,5-dihydro-1,3-oxazol-2-yl]-3H-spiro[2-benzofuran-1,4′-piperidin]-3-one enantiomer B]: the Ki was 20 nM.
To `O=C1N=C(N2CCC3(CC2)OCc2ccccc23)OC1CC1CCCC1` (single isomer, unassigned; enantiomer b) [Example 14, 5-(Cyclopentylmethyl)-2-(1′H,3H-spiro[2-benzofuran-1,4′-piperidin]-1′-yl)-1,3-oxazol-4(5H)-one enantiomer B] belongs 2.51 nM.
Consider `O=C1OC2(CCN(C3=NC(=O)C(CC4CCCC4)O3)CC2)c2ccccc21` (single isomer, unassigned; enantiomer b) [Example 16, 1′-[5-(Cyclopentylmethyl)-4-oxo-4,5-dihydro-1,3-oxazol-2-yl]-3H-spiro[2-benzofuran-1,4′-piperidin]-3-one enantiomer B], for which the Ki is 12.6 nM.
Consider `O=C1OC2(CCN(C3=NC(=O)C(Cc4ccccc4)O3)CC2)c2ccccc21` (single isomer, unassigned; enantiomer b) [Example 21, 1′-[5-Benzyl-4-oxo-4,5-dihydro-1,3-oxazol-2-yl]-3H-spiro[2-benzofuran-1,4′-piperidin]-3-one enantiomer B], for which the Ki is 5.01 nM.
For the compound `CC1(Cc2ccccc2)OC(N2CCC3(CC2)OC(=O)c2ccccc23)=NC1=O` (single isomer, unassigned; enantiomer b) [Example 73, 1′-[5-Benzyl-5-methyl-4-oxo-4,5-dihydro-1,3-oxazol-2-yl]-3H-spiro[2-benzofuran-1,4′-piperidin]-3-one enantiomer B], the Ki is 251 nM.
As for `CC1(Cc2ccc(Cl)cc2)OC(N2CCC3(CC2)OC(=O)c2ccccc23)=NC1=O` (single isomer, unassigned; enantiomer b) [Example 81, 1′-[5-(4-Chlorobenzyl)-5-methyl-4-oxo-4,5-dihydro-1,3-oxazol-2-yl]-3H-spiro[2-benzofuran-1,4′-piperidin]-3-one enantiomer B], the Ki is 501 nM.
In the case of `CCCC1OC(N2CCC3(CC2)OCc2ccccc23)=NC1=O` (stereo not shown) [Example 1, 5-Propyl-2-(1′H,3H-spiro[2-benzofuran-1,4′-piperidin]-1′-yl)-1,3-oxazol-4(5H)-one], the Ki is 79.4 nM.
With `CCCCC1OC(N2CCC3(CC2)OCc2ccccc23)=NC1=O` (stereo not shown) [Example 2, 5-Butyl-2-(1′H,3H-spiro[2-benzofuran-1,4′-piperidin]-1′-yl)-1,3-oxazol-4(5H)-one], the Ki is 5.01 nM.
Regarding `CC(C)CC1OC(N2CCC3(CC2)OCc2ccccc23)=NC1=O` (stereo not shown) [Example 7, 5-(2-Methylpropyl)-2-(1′H,3H-spiro[2-benzofuran-1,4′-piperidin]-1′-yl)-1,3-oxazol-4(5H)-one], the Ki was 20 nM.
On to `C=CCC1OC(N2CCC3(CC2)OCc2ccccc23)=NC1=O` (stereo not shown) [Example 8, 5-(Prop-2-en-1-yl)-2-(1′H,3H-spiro[2-benzofuran-1,4′-piperidin]-1′-yl)-1,3-oxazol-4(5H)-one], for which the Ki is 158 nM.
To `C=C(C)CC1OC(N2CCC3(CC2)OCc2ccccc23)=NC1=O` (stereo not shown) [Example 9, 5-(2-Methylprop-2-en-1-yl)-2-(1′H,3H-spiro[2-benzofuran-1,4′-piperidin]-1′-yl)-1,3-oxazol-4(5H)-one] belongs 2 nM.
Consider `C=C(CC1OC(N2CCC3(CC2)OCc2ccccc23)=NC1=O)C(F)(F)F` (stereo not shown) [Example 10, 2-(1′H,3H-Spiro[2-benzofuran-1,4′-piperidin]-1′-yl)-5-[2-(trifluoromethyl)prop-2-en-1-yl]-1,3-oxazol-4(5H)-one], for which the Ki is 3.98 nM.
Consider `CC#CCC1OC(N2CCC3(CC2)OCc2ccccc23)=NC1=O` (stereo not shown) [Example 11, 5-(But-2-yn-1-yl)-2-(1′H,3H-spiro[2-benzofuran-1,4′-piperidin]-1′-yl)-1,3-oxazol-4(5H)-one], for which the Ki is 50.1 nM.

The values are drawn from patent US9828385B2, “Spiro-oxazolones” (Hoffmann-La Roche Inc., priority 2014, dated 2017).
